Reference: patent US5041355A, “High contrast photographic element including an aryl sulfonamidophenyl hydrazide containing ethyleneoxy groups” (Eastman Kodak Company, priority 1990, dated 1991)

Assay: relative speed and contrast of silver halide coatings containing nucleator and incorporated booster, exposed and processed in developer
Conditions: for Relative Speed: 1 minute at 35° C., developer pH 10.5; for lower scale activity (speed): in words
Description: Each coating used in the following examples was prepared on a polyester support, using a mono-dispersed 0.24 μm AgBrI (2.5 mol % iodide) iridium-doped emulsion at 3.51 g/m^2 Ag, 2.54 g gel/m^2, and 1.08 g latex/m^2 where the latex is a copolymer of methyl acrylate, 2-acrylamido-2-methylpropane sulfonic acid, and 2-acetoacetoxyethylmethylacrylate. The silver halide emulsion was spectrally sensitized with 214 mg/Ag mol of anhydro-5,5'-dichloro-9-ethyl-3,3'-di-(3-sulfopropyl)oxacarbocyanine hydroxide, triethylene salt and the emulsion layer was overcoated with gelatin containing polymethylmethacrylate beads. The nucleating agent was added as a methanol solution to the emulsion melts at a level in millimoles (mM) per mole of silver as hereinafter indicated. An "incorporated booster" was added as a methanol solution in an amount of 64.6 milligrams per square meter of photographic element. The compound employed as the "incorporated booster" is represented by the formula: [drawing 8] where Pr represents n-propyl. Coatings were exposed for five seconds to a 3000° K. tungsten light source and processed for 1 minute at 35° C. in the developer solution.
To prepare the developer solution, a concentrate was prepared from the following ingredients:
The concentrate was diluted at a ratio of one part of concentrate to two parts of water to produce a working strength developing solution with a pH of 10.5.

[1] = concentration of nucleator 1.0 mM/Ag mole
[2] = concentration of nucleator 2.0 mM/Ag mole

Row | SMILES | speed compared with Test 2 (Test 7 (1.0 mM/Ag mole) versus Test 2 (2.0 mM/Ag mole)) | Relative Speed [1] | Relative Speed [2] | lower scale activity (speed) | Relative Speed (concentration of nucleator 1.9 mM/Ag mole)
1 | CCCCCCCOCCOCCOCCOCCOCCOCCOCCOCCOCCOc1ccc(S(=O)(=O)Nc2ccc(NNC=O)cc2)cc1 [hydrazide I-4] | somewhat greater speed | 105 | 110 | beneficial effects upon lower scale activity (speed) | –
2 | CCCCCOCCOCCOCCOCCOc1ccc(S(=O)(=O)Nc2ccc(NNC=O)cc2)cc1OCCOCCOCCOCCOCCCCC [hydrazide I-8] | – | 98 | – | beneficial effects upon lower scale activity (speed) | 105
3 | CC(C)c1ccc(C(C)C)c(S(=O)(=O)Nc2ccc(NNC=O)cc2)c1 [reference compound] | – | 87 | 100 | – | –
4 | CCCCCCCCOCCOCCOc1ccc(S(=O)(=O)Nc2ccc(NNC=O)cc2)cc1 [reference compound] | – | 87 | 93 | – | –
